The values below come from patent publication US6391917B1, “Dialkyl ureas as calcitonin mimetics” (ZymoGenetics, Inc., priority 1998, dated 2002).

One assay addresses T1, human PTH receptor (Homo sapiens, UniProt Q03431).
T1 construct: expressed in transfected cells; host or cells: BHK570 clone KZ10-20-48 (KZ10-20-48/PTH-20)
T1 sequence (Q03431 27-593): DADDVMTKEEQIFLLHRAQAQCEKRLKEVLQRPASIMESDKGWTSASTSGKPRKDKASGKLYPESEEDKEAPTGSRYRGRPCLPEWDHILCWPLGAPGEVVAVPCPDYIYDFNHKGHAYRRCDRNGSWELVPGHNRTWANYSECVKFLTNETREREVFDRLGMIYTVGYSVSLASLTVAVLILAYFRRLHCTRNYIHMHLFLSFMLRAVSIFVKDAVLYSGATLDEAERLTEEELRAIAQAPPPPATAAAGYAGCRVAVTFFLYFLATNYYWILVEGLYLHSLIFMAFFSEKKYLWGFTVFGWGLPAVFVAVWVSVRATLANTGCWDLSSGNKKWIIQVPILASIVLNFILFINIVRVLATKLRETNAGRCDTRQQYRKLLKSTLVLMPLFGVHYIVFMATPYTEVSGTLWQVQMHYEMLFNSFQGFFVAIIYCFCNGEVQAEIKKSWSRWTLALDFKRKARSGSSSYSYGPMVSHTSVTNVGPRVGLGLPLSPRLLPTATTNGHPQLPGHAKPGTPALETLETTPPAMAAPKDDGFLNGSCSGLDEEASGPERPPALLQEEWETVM
The assay can be described thus: CRE-luciferase induction in clone KZ10-20-48/PTH-20. In kind it is cell-based. An excerpt:
Test substances that appear to specifically elevate luciferase expression in CT-R positive cells but not CT-R negative cells were subjected to an additional specificity check, i.e. their inability to activate other members of the G-protein coupled receptor family. The parathyroid hormone (PTH) receptor is another member of the G-protein coupled receptor family that transduces signal through adenylate cyclase mediated elevation of cAMP.

Assay [1] can be described thus: Induction of hypocalcemia in rats. The format is in vivo. The settings on record: weanling rats, tail vein, 0.5, 2.5, 5, 50 and 100 ng/rat, serum calcium one hour later. How it is done: This assay is based on the in vivo acute effect of calcitonin on osteoclasts, which causes rapid retraction of osteoclasts from bone surface (typically within 30 minutes) and which results in decreased bone resorption. See Mills, et al., in Endocrinology 1971—Proceedings of the Third International SymDosium, Taylor (ed), Heinemann Medical, London, pp. 79-88 (1972) and Singer, et al., Clin. Endocrinol. 5(Supp):333s-40s, 1976. The assay method was modified from the method described by Sturtridge and Kumar, Lancet 545:725-6, 1968. For the assay of hypocalcemic activity, weanling male Holtzman Sprague-Dawley rats (22 days old) are infused with vehicle (PBS with 1 mM HCl and 0.1% BSA), calcitonin or calcitonin mimetics through the tail vein. One hour later, blood samples are collected by orbital sinus puncture to determine serum levels of calcium. A decrease in serum calcium indicates a hypocalcemic response. The hypocalcemic response is dose-dependent as determined using salmon calcitonin (0.5, 2.5, 5, 50 and 100 ng/rat) in this model. Inhibition of PTH-induced hypercalcemia in TPTX rats

As a reminder, the EC50 is the concentration that produces a half-maximal response. `C=C[C@@]1(C)CC(=O)[C@]2(O)[C@@]3(C)[C@@H](O)CCC(C)(C)[C@@H]3[C@H](O)[C@H](OC(C)=O)[C@@]2(C)O1` [forskolin] showed an EC50 on human PTH receptor of 2 µM.

Regarding salmon calcitonin, the hypocalcemic response entry in assay [1] was “dose-dependent”.
